Structures can show the parent of a compound that is named as a salt.
Legend:
[1] = test system: human dermal fibroblasts (DF2); test: In vitro cytotoxicity, MTT test, 24 h incubation; assay type: cell-based
Protocol: (§1) The culture of dermal fibroblast cells (DF2) was obtained from the collection of the Institute of Cytology of the Russian Academy of Sciences (Saint Petersburg, Russia). The cells were cultured in plastic vials with a cell growth surface of 25 cm^2 (Costar, Richmond, VA, USA) on DMEM/F12 medium with the addition of L-glutamine and 10% fetal bovine serum (FBS) (PanEco, Moscow, Russia). The cells were cultured at 37 °C in a humid atmosphere with a content of 5% CO2 (Binder CO2 incubator, Germany). Cell lines from 3 to 7 passages were used in the work. To conduct experiments to evaluate the cytotoxicity of compounds, cells were sieved into 96-well culture plates at a concentration of 10^5 cells per ml, incubated at 37 °C (humidified atmosphere, 5% carbon dioxide) for 24–28 h. Further, 50 µL of the studied substances was added. The cells were incubated with the compounds for 24 h at 37 °C. Next, the cytotoxic effect of the substances was evaluated by a colorimetric method using an MTT test and visually, using an inverted microscope. The criterion for evaluating the specific activity of the compound was the value of IC50, the concentration at which 50% death of culture cells was noted.

[2] = Z-E isomerization half-life by UV/Vis spectrophotometry after 365 nm irradiation; assay type: physicochemical; conditions: for τ1/2 (DMSO), Z-E isomerization half-life: RT, after 365 nm 5 min; for τ1/2 (Aqueous Kolliphor ELP), Z-E isomerization half-life: aqueous 4% Kolliphor ELP solution
Protocol: As one of the main physicochemical properties of photopharmacological agents, the Z-E half-life was investigated, which determines the stability of the Z-isomer. The Z-E half-lifes were measured using UV/Vis spectrophotometry, converting the compound to the Z-isomer by irradiating with UV light and observing the change in absorption intensity due to reverse Z-E relaxation.
Z-E isomerization half-life was determined using UV/Vis spectroscopy. Solutions were prepared and kept in the dark at RT before the experiment. First, the spectrum in the dark was registered ( PSSdark) , which corresponds to the photostationary state (PSS) with E-isomer predominance. Then, the cuvette with the solution was irradiated with UV light (λ = 365 nm) for 5 min to give the PSS with Z-isomer predominance. The corresponding spectrum was registered ( PSS365nm) . During the subsequent isomerization, the kinetics of changes in the absorption value were recorded at the wavelength of the absorption maximum corresponding to the E-isomer ( λmax(E)) . Then, lnAt/A0 values were calculated using the Equation (1):(1) lnAt/A0=lnAbsPSS(dark)−Abstime/AbsPSS(dark)−AbsPSS(365nm), where AbsPSS(dark) , AbsPSS(365nm), and Abstime are absorbance values at λmax(E) in the dark at the beginning of the experiment, after UV light (λ = 365 nm) irradiation, and at different time points from 0 to 60 min, respectively. Then, a graph was plotted depending on lnAt/A0 values from time, the trend line was calculated, and a first-order rate constant (k) for the thermal back Z-E isomerization reaction was obtained as the slope of the trend line.
For a first-order reaction, half-life t1/2 can be calculated using the Equation (2):(2) t1/2=ln2/k

[3] = test system: rabbit eye cornea; test: Surface anesthesia on the rabbit cornea, Regnier method (Regnier index); assay type: in vivo; conditions: for Local Anesthetic Activity (Regnier Index, Min—13, Max—1300) In the Dark / Local Anesthetic Activity (Regnier Index, Min—13, Max—1300) Under Irradiation (λ = 365 nm): 1% solution, 0.2 mL instilled, mean ± SD; for Local Anesthetic Activity (Regnier Index, Min—13, Max—1300) In the Dark: in the dark (E-form predominance); for Local Anesthetic Activity (Regnier Index, Min—13, Max—1300) Under Irradiation (λ = 365 nm): solution irradiated with UV 365 nm (Z-form predominance)
Protocol: Thus, the main biological property investigated in this work was the local anesthetic activity of the new derivatives in the dark (with a predominance of the E-form) and under irradiation (with a predominance of the Z-form). The evaluation of local anesthetic activity was conducted on the rabbit cornea using the Regnier method. […] RI values in darkness (451 ± 40) and under UV light irradiation (469 ± 37) for a 2% solution of lidocaine, used as a reference drug, were obtained previously and are independent of light exposure. A 4% aqueous solution of Kolliphor® ELP, used for solubilizing ethercaine and its derivatives and lacking intrinsic local anesthetic activity, was employed as a negative control. In vitro cytotoxicity studies were conducted to initially assess the safety of the compounds.
Non-anesthetized, mature male rabbits of a Soviet chinchilla breed weighing 2–3 kg, obtained from the KrolInfo farm (Orekhovo-Zuyevo, Russia), were used in this study. Animals were kept under standard conditions (humidity 50–60%, temperature 19–22 °C). A 12-h lighting cycle was maintained. Each animal was kept in a separate cage. Animals had ad libitum access to standard extruded feed “CHARA” (CJSC “Assortiment-Agro”, Turakovo Village, Moscow region, Russia) and clean drinking water. Water treatment was performed using a “7 TECHNOCOM” block modular system (LLC “7 TECH”, Moscow, Russia). For in vivo, surface anesthesia measurements, an in-house-made anesthesiometer with a fixed length of a nylon filament (l = 1.0 cm, d = 0.125 mm) was used. Statistical analysis was performed, and figures were plotted using the Python programming language’s standard functions and a Matplotlib package (Version 3.8) for Python. All biological data conformed to a normal distribution (Shapiro–Wilk’s W test, p > 0.05). All data are expressed as the mean ± standard deviation.
For determination of the rabbit eye cornea’s sensitivity using the surface anesthesia method, 12 rabbits with a basic sensitivity threshold (sensitivity threshold of the eye cornea to tactile impact of the anesthesiometer) of 1–2 touches were selected. They were used in experiments repeatedly with an interval of at least 5 days between the experiments. Each eye was considered as a separate experimental point. Three animals were used in each of the experimental groups (n = 6). Two animals (n = 4) were used in each of the negative control groups and in each of experimental groups with UV irradiation due to the expected lack of the effect and to minimize the number of animals in the experiment. Animals were randomly divided into groups. Before an experiment, the animals were immobilized, leaving the head free. Before each experiment, the animals’ eyelashes were cut out, and the basic threshold of sensitivity of the eye cornea to tactile contact was determined using an anesthesiometer.
The irradiation modes were described earlier. Experiments with animals were carried out in a darkened room with a 50W LED light source (λ = 625 nm), which lies outside the absorption bands of the UV/Vis spectrum of the test compound. Before the experiments, solutions of test compounds were irradiated for 5 min with UV light (λ = 365 nm, LED flashlight, 0.5 W).
The adaptation of a model of surface anesthesia on the rabbit’s cornea using the Regnier method for the study of light-controlled local anesthetics was described earlier. The test solution (0.2 mL) of the required concentration (2% for the lidocaine or 1% for the ethercaine and its derivatives) was instilled into each conjunctival sac. After that, the sensitivity threshold of the eye cornea to tactile impact was determined. The first determination was performed at the 8th minute of the experiment and then at the 10th, 12th, 15th, 20th, 25th, 30th, 35th, 40th, 45th, 50th, 55th, and 60th min (13 values overall). […]

[4] = In vitro cytotoxicity, MTT test, 24 h incubation; assay type: cell-based, human; conditions: human, dermal fibroblast cells (DF2), DF2 fibroblasts
Protocol: as §1

Row | SMILES | IC50 [1] [µM] | τ1/2 (DMSO), Z-E isomerization half-life [2] [h] | τ1/2 (Aqueous Kolliphor ELP), Z-E isomerization half-life [2] [h] | Local Anesthetic Activity (Regnier Index, Min—13, Max—1300) In the Dark [3] | Local Anesthetic Activity (Regnier Index, Min—13, Max—1300) Under Irradiation (λ = 365 nm) [3] | IC50 at 24 h [4] [µM] | τ1/2 (Aqueous Kolliphor ELP column), Z-E isomerization half-life ([2]; value obtained for the solution in water) [h] | Decrease in Regnier index under UV light irradiation (365 nm) versus darkness ([3]; dark vs 365 nm) [fold]
1 | Cl.Fc1ccccc1N=Nc1c(F)cc(OCCN2CCOCC2)cc1F [Compound 20e, 2,2′,6-trifluoro-4-(2-(N-morpholino)-ethoxy)-azobenzene hydrochloride] | 190 | 703 | 60 | 395 ± 72 (n = 6) | 59 ± 18 (n = 4) |  |  | 
2 | c1ccc(/N=N/c2ccccc2OCCN2CCOCC2)cc1 [Compound 9a, 2-(2-(N-morpholino)-ethoxy)-azobenzene hydrochloride] |  | 17.2 | 125 |  |  | > 1000 |  | 
3 | Cl.Fc1cc(OCCN2CCOCC2)ccc1N=Nc1ccccc1 [Compound 20a, 2-fluoro-4-(2-(N-morpholino)-ethoxy)-azobenzene hydrochloride] | 190 | 7.8 | 2.5 | 509 ± 34 (n = 6) | 64 ± 15 (n = 4) |  |  | 
4 | Cc1cnc(/N=N/c2ccc(OCCN3CCOCC3)cc2)s1 [Compound 25b, 2-(4-(2-(N-morpholino)-ethoxy)-phenylazo)-5-methylthiazole hydrochloride] |  | 0.083 | 0.067 |  |  | 440 |  | 
5 | Cl.Fc1ccccc1N=Nc1ccc(OCCN2CCOCC2)cc1 [Compound 20c, 2′-fluoro-4-(2-(N-morpholino)-ethoxy)-azobenzene hydrochloride] | 190 | 3.6 | 0.4 | 590 ± 24 (n = 6) | 70 ± 7 (n = 4) |  |  | 
6 | c1ccc(/N=N/c2cccc(OCCN3CCOCC3)c2)cc1 [Compound 9b, 3-(2-(N-morpholino)-ethoxy)-azobenzene hydrochloride] |  | 26.8 | 437 |  |  | 240 |  | 
7 | CN1CCN(CCOc2ccc(/N=N/c3ccccc3)cc2)CC1 [Compound 14, 4-(2-(4-Methyl-1-Piperazino)-Ethoxy)-Azobenzene Dihydrochloride] |  | 18.6 |  |  |  | 60 | 3.5 | 
8 | Cl.Fc1cc(OCCN2CCOCC2)ccc1N=Nc1c(F)cccc1F [Compound 20g, 2,2′,6′-trifluoro-4-(2-(N-morpholino)-ethoxy)-azobenzene hydrochloride] | 180 | 137 | 5.0 | 437 ± 37 (n = 6) | 45 ± 9 (n = 4) |  |  | 
9 | Cl.Fc1cccc(F)c1N=Nc1c(F)cc(OCCN2CCOCC2)cc1F [Compound 20h, 2,2′,6,6′-tetrafluoro-4-(2-(N-morpholino)-ethoxy)-azobenzene hydrochloride] | 440 | 1190 | 281 | 353 ± 10 (n = 6) | 35 ± 7 (n = 4) |  |  | 
10 | CCN(CC)CCOc1ccc(N=Nc2ccccc2)cc1.Cl [Compound 16, 4-(2-(N,N-Diethylamino)Ethoxy)Azobenzene Hydrochloride] |  | 15.6 | 6.0 |  |  | 90 |  | 
11 | Cl.Fc1cccc(F)c1N=Nc1ccc(OCCN2CCOCC2)cc1 [Compound 20f, 2′,6′-difluoro-4-(2-(N-morpholino)-ethoxy)-azobenzene hydrochloride] | 210 | 24 | 1.0 | 570 ± 87 (n = 6) | 76 ± 19 (n = 4) |  |  | 
12 | Cl.Fc1ccccc1N=Nc1ccc(OCCN2CCOCC2)cc1F [Compound 20d, 2,2′-difluoro-4-(2-(N-morpholino)-ethoxy)-azobenzene hydrochloride] | 190 | 8.1 | 2.3 | 419 ± 57 (n = 6) | 84 ± 8 (n = 4) |  |  | 
13 | Cl.Fc1cc(OCCN2CCOCC2)cc(F)c1N=Nc1ccccc1 [Compound 20b, 2,6-difluoro-4-(2-(N-morpholino)-ethoxy)-azobenzene hydrochloride] | 180 | 456 | 1.9 | 538 ± 37 (n = 6) | 58 ± 8 (n = 4) |  |  | 
14 | c1ccc(/N=N/c2ccc(OCCN3CCOCC3)cc2)cc1 [Compound 1, Ethercaine hydrochloride] |  | 2.1 | 0.833 |  |  | 210 |  | 19
